Assay results taken from PMC4859410 (Pharmacogenetics and genomics, 2010).
Where two headings read alike, the source gives them in different places.

Assays:
OATP1B3 = molecular target: T1, OATP1B3 (Homo sapiens, UniProt Q9NPD5); experiment: Drug uptake in X. laevis oocytes injected with SLCO1B3; format: in vitro ADME; conditions: without human serum albumin, 1 µM (darunavir 3 µM, performed once), 18°C, 1hr, mean ± SD; for Drug uptake, OATP1B3: OATP1B3 cRNA injected oocytes; for Drug uptake, Water: water injected control oocytes (Table 3)
T1 sequence (Q9NPD5 1-702): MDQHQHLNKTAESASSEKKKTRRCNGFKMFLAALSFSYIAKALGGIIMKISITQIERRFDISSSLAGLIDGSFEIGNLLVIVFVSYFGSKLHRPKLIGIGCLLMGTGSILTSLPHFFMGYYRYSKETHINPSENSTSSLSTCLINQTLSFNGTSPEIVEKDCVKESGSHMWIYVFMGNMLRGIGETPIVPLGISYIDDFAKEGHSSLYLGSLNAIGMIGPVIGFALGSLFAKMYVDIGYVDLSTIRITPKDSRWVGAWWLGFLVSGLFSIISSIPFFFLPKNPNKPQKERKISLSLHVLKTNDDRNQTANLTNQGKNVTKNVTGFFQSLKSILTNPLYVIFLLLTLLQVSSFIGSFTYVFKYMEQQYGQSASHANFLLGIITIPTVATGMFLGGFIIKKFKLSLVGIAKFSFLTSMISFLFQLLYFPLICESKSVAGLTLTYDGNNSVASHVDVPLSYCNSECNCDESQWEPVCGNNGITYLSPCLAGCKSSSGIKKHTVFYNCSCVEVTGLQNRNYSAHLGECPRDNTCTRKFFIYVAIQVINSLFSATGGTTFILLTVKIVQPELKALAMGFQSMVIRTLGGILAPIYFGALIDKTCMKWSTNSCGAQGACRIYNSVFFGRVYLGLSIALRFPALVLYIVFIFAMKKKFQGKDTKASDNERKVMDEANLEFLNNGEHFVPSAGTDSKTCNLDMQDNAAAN

[1] = format: in vivo, human
OATP1A2 = molecular target: T2, OATP1A2 (Homo sapiens, UniProt P46721); experiment: Drug uptake in X. laevis oocytes injected with SLCO1A2; format: in vitro ADME; conditions: 1 µM (darunavir 3 µM), 18°C, 1hr, mean ± SD; for Drug uptake, OATP1A2: OATP1A2 cRNA injected oocytes; for Drug uptake, Water: water injected control oocytes (Table 1)
T2 sequence (P46721 1-670): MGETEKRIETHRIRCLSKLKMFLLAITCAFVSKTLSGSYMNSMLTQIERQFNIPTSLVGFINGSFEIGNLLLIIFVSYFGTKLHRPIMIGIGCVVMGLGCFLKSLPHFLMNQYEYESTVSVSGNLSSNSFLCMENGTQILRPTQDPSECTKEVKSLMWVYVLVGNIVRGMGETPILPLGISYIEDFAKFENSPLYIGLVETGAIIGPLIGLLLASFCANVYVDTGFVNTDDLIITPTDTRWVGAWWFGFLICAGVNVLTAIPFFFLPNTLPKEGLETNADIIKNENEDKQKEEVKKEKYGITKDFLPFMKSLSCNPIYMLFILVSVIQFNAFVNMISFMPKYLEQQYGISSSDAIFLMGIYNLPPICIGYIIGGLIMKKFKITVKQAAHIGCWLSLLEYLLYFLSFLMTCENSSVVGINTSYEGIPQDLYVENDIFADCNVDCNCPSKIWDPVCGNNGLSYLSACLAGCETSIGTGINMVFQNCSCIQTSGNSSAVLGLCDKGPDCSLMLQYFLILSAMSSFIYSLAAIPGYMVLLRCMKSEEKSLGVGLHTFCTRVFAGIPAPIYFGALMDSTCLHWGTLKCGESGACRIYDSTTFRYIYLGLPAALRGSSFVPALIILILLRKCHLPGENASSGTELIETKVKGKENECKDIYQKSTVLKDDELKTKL

OATP1B1 [2] = molecular target: T3, OATP1B1 (Homo sapiens, UniProt Q9Y6L6); experiment: Drug uptake in X. laevis oocytes injected with SLCO1B1; format: in vitro ADME; conditions: 1 µM (darunavir 3 µM), 18°C, 1hr, mean ± SD; for Drug uptake, OATP1B1: OATP1B1 cRNA injected oocytes; for Drug uptake, Water: water injected control oocytes (Table 2)
T3 sequence (Q9Y6L6 1-691): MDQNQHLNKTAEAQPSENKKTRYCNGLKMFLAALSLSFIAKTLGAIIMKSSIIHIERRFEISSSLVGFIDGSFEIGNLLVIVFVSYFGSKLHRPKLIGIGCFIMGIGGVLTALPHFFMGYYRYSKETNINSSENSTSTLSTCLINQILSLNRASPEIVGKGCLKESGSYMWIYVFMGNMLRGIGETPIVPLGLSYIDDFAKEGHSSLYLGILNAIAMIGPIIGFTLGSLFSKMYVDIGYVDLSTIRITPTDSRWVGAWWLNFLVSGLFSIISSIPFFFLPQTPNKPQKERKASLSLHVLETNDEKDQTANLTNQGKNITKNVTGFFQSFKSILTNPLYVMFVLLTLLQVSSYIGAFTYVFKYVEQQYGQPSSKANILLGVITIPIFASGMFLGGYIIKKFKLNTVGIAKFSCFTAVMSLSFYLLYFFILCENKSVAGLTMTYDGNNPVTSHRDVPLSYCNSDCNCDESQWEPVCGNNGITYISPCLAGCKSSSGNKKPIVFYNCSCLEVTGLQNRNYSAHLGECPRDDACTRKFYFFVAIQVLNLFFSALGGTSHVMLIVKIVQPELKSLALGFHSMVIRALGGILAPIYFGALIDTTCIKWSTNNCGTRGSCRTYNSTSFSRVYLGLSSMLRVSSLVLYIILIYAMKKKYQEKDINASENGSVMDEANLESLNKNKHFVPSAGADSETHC

OATP1B1 [3] = molecular target: T3, OATP1B1; conditions: HEK 293 cells stably transfected with SLCO1B1; cited from earlier work
[4] = independent variable Age (Years)
[5] = independent variable Coadministered protease inhibitor
[6] = independent variable Male Gender
[7] = independent variable SLCO1A2 38T>C
[8] = independent variable SLCO1A2 516A>C
[9] = independent variable SLCO1B1 388A>G
[10] = independent variable SLCO1B1 521T>C
[11] = independent variable SLCO1B3 334T>G
[12] = independent variable Weight (per 10kg)
[13] = patients on lopinavir/ritonavir 400mg/100mg b.d., samples included in the analysis

Compound: Cc1cccc(C)c1OCC(=O)N[C@@H](Cc1ccccc1)[C@@H](O)C[C@H](Cc1ccccc1)NC(=O)[C@H](C(C)C)N1CCCNC1=O [Lopinavir, lopinavir]
- Drug uptake, OATP1B3 (OATP1B3): 2.30 ± 0.66 pmol/oocyte
- Drug uptake, Water (OATP1B3): 1.69 ± 0.78 pmol/oocyte
- lopinavir Cmin with a SNP located in intron 2 of the SLCO1B1 gene ([1]; in words): significantly lower
- median plasma lopinavir Cmin, patients homozygous for the C allele at position 521 of SLCO1B1 compared to T homozygotes or heterozygotes ([1]; in words): significantly higher
- Univariate effect size on lopinavir C2-6 [1, 4]: 6.8%
- Univariate effect size on lopinavir Cmin [1, 4]: 1.1%
- Univariate effect size on lopinavir C2-6 [1, 5]: −14.9%
- Univariate effect size on lopinavir Cmin [1, 5]: −15.5%
- Univariate effect size on lopinavir C2-6 [1, 6]: 4.2%
- Univariate effect size on lopinavir Cmin [1, 6]: −5.5%
- Univariate effect size on lopinavir C2-6 [1, 7]: 5.8%
- Univariate effect size on lopinavir Cmin [1, 7]: 4.7%
- Univariate effect size on lopinavir C2-6 [1, 8]: 5.4%
- Univariate effect size on lopinavir Cmin [1, 8]: −1.0%
- Univariate effect size on lopinavir C2-6 [1, 9]: −7.1%
- Univariate effect size on lopinavir Cmin [1, 9]: −7.3%
- Univariate effect size on lopinavir C2-6 [1, 10]: 12.8%
- Univariate effect size on lopinavir Cmin [1, 10]: 12.2%
- Multivariate effect size on lopinavir Cmin ([1]; independent variable SLCO1B1 Intron 2 (rs4149032)): 0.016 (−11) - %
- Univariate effect size on lopinavir C2-6 ([1]; independent variable SLCO1B1 Intron 2 (rs4149032), C2-6 = 2-6h post dose): −4.6%
- Univariate effect size on lopinavir Cmin ([1]; independent variable SLCO1B1 Intron 2 (rs4149032), Cmin = 10-14h post dose): −11.9%
- Univariate effect size on lopinavir C2-6 [1, 11]: −0.2%
- Univariate effect size on lopinavir Cmin [1, 11]: −1.8%
- Multivariate effect size on lopinavir Cmin [1, 12]: −17.2%
- Univariate effect size on lopinavir C2-6 [1, 12]: −13.7%
- Univariate effect size on lopinavir Cmin [1, 12]: −17.4%
- C2-6 higher for each variant allele of SLCO1B1 521T>C ([1]; multivariate model): 11.1%
- C2-6 higher in patients receiving an additional protease inhibitor ([1]; multivariate model): 14.4%
- Cmin higher in patients receiving an additional protease inhibitor ([1]; multivariate model): 15.4%
- Cmin lower for each variant allele of SLCO1B1 rs4149032 ([1]; multivariate model): 11%
- Cmin lower for every 10 Kg increase in body weight ([1]; multivariate model): 17.2%
- median lopinavir concentration (plasma) [1, 13]: 5072 ng/mL
- range of lopinavir concentration (plasma) [1, 13]: 114 to 24432 ng/mL
- Drug uptake, OATP1A2 (OATP1A2; with 2% human serum albumin): 1.65 ± 0.59 pmol/oocyte
- Drug uptake, OATP1A2 (OATP1A2; without human serum albumin): 4.07 ± 0.67 pmol/oocyte
- Drug uptake, Water (OATP1A2; with 2% human serum albumin): 0.82 ± 0.24 pmol/oocyte
- Drug uptake, Water (OATP1A2; without human serum albumin): 2.53 ± 0.36 pmol/oocyte
- Drug uptake, OATP1B1 (OATP1B1 [2]; with 2% human serum albumin): 1.14 ± 0.41 pmol/oocyte
- Drug uptake, OATP1B1 (OATP1B1 [2]; without human serum albumin): 4.31 ± 0.72 pmol/oocyte
- Drug uptake, Water (OATP1B1 [2]; with 2% human serum albumin): 0.66 ± 0.22 pmol/oocyte
- Drug uptake, Water (OATP1B1 [2]; without human serum albumin): 2.14 ± 0.43 pmol/oocyte

Compound: CC(C)(C)NC(=O)[C@@H]1C[C@@H]2CCCC[C@@H]2CN1C[C@@H](O)[C@H](Cc1ccccc1)NC(=O)[C@H](CC(N)=O)NC(=O)c1ccc2ccccc2n1 [Saquinavir, saquinavir]
- Drug uptake, OATP1B3 (OATP1B3): 2.17 ± 0.61 pmol/oocyte
- Drug uptake, Water (OATP1B3): 1.62 ± 0.45 pmol/oocyte
- Drug uptake, OATP1A2 (OATP1A2; with 2% human serum albumin): 0.45 ± 0.05 pmol/oocyte
- Drug uptake, OATP1A2 (OATP1A2; without human serum albumin): 2.16 ± 0.71 pmol/oocyte
- Drug uptake, Water (OATP1A2; with 2% human serum albumin): 0.27 ± 0.03 pmol/oocyte
- Drug uptake, Water (OATP1A2; without human serum albumin): 1.01 ± 0.21 pmol/oocyte
- Inhibition of bilirubin uptake through OATP1B1 (OATP1B1 [3]): inhibit bilirubin uptake
- Drug uptake, OATP1B1 (OATP1B1 [2]; with 2% human serum albumin): 0.64 ± 0.23 pmol/oocyte
- Drug uptake, OATP1B1 (OATP1B1 [2]; without human serum albumin): 1.78 ± 0.44 pmol/oocyte
- Drug uptake, Water (OATP1B1 [2]; with 2% human serum albumin): 0.21 ± 0.06 pmol/oocyte
- Drug uptake, Water (OATP1B1 [2]; without human serum albumin): 0.94 ± 0.26 pmol/oocyte
